# ChEMBL document CHEMBL1138149, “Optimization of a privileged structure leading to potent and selective human melanocortin subtype-4 receptor ligands” (Bioorg Med Chem Lett, 2006)
# What was measured:
# [1] = molecular target: T1, Melanocortin receptor 5 (Homo sapiens, UniProt P33032); experiment: Activity against human MC5R by percentage of cAMP accumulation at 10 uM; format: functional
# [2] = molecular target: T2, Melanocortin receptor 3 (Homo sapiens, UniProt P41968); experiment: Activity against human MC3R by percentage of cAMP accumulation at 10 uM; format: functional
# [3] = molecular target: T1, Melanocortin receptor 5; experiment: Activity against human MC5R by cAMP accumulation; format: functional
# [4] = molecular target: T3, Melanocyte-stimulating hormone receptor (Homo sapiens, UniProt Q01726); experiment: Activity against human MC1R by percentage of cAMP accumulation at 10 uM; format: functional
# Target sequence in this assay (Q01726 whole entry, looked up): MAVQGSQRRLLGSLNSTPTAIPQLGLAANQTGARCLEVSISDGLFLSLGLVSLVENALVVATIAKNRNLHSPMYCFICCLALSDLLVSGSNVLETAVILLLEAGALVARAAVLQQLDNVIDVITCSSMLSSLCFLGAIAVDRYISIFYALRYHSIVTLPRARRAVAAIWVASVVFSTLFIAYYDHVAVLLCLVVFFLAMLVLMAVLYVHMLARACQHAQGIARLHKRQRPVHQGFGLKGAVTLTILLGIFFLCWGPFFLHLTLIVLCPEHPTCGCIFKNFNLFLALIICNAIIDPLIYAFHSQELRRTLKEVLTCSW
# [5] = molecular target: T4, Melanocortin receptor 4 (Homo sapiens, UniProt P32245); experiment: Displacement of [125I]NDP-alpha-MSH from human MC4R expressed in CHO cells; format: cell-based
# [6] = molecular target: T2, Melanocortin receptor 3; experiment: Activity against human MC3R by cAMP accumulation; format: functional
# [7] = molecular target: T3, Melanocyte-stimulating hormone receptor; experiment: Activity against human MC1BR by cAMP accumulation; format: functional
# Target sequence in this assay (Q01726 whole entry): as the sequence (Q01726 whole entry, looked up) above
# [8] = molecular target: T4, Melanocortin receptor 4; experiment: Activity against human MC4R by percentage of cAMP accumulation at 10 uM; format: functional
# [9] = molecular target: T4, Melanocortin receptor 4; experiment: Activity against human MC4R by cAMP accumulation; format: functional
# [10] = molecular target: T1, Melanocortin receptor 5; experiment: Displacement of [125I]NDP-alpha-MSH from human MC5R expressed in CHO cells; format: cell-based
# [11] = molecular target: T3, Melanocyte-stimulating hormone receptor; experiment: Displacement of [125I]NDP-alpha-MSH from human MC1BR expressed in CHO cells; format: cell-based
# Target sequence in this assay (Q01726 whole entry): as the sequence (Q01726 whole entry, looked up) above
# [12] = molecular target: T2, Melanocortin receptor 3; experiment: Displacement of [125I]NDP-alpha-MSH from human MC3R expressed in CHO cells; format: cell-based
# T1 sequence (P33032 whole entry): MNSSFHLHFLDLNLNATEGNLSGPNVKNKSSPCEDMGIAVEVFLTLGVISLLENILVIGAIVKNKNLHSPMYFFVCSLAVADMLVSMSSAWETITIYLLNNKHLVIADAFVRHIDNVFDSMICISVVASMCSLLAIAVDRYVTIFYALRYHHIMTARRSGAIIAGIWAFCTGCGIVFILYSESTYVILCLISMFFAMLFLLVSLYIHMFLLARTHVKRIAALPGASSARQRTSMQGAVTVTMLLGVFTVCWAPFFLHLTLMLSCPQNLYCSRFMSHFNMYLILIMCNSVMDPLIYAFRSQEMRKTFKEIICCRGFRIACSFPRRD
# T4 sequence (P32245 whole entry): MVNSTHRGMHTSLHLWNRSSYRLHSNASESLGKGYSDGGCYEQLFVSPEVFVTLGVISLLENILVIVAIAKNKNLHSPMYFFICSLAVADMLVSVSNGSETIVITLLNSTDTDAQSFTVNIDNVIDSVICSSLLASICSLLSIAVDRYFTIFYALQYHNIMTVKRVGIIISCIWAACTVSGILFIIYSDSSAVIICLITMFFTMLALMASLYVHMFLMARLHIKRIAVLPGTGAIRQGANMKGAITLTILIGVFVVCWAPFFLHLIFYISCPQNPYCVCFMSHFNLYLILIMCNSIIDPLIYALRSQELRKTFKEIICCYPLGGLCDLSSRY
# T2 sequence (P41968 whole entry): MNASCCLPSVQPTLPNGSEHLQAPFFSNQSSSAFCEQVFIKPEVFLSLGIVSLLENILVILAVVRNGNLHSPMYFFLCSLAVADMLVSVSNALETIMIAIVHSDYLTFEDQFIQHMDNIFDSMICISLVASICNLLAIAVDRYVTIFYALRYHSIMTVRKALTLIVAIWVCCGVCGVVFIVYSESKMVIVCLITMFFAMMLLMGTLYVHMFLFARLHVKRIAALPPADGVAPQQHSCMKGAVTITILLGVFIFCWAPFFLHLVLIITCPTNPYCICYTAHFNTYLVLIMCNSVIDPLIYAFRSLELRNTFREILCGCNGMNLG
Compound,%max [1],%max [2],EC50 [3],%max [4],IC50 [5],EC50 [6],EC50 [7],%max [8],EC50 [9],IC50 [10],IC50 [11],IC50 [12]
CCOC(=O)N(CC1(C2CCCCC2)CCN(C(=O)[C@@H](Cc2ccc(Cl)cc2)NC(=O)[C@H]2Cc3ccccc3CN2)CC1)C(C)C,51%,37%,3600 nM,26%,8.1 nM,550 nM,970 nM,95%,14 nM,630 nM,1100 nM,630 nM
CC(C)N(CC1(C2CCCCC2)CCN(C(=O)[C@@H](Cc2ccc(Cl)cc2)NC(=O)[C@H]2Cc3ccccc3CN2)CC1)S(C)(=O)=O,48%,23%,800 nM,39%,2.1 nM,590 nM,1500 nM,86%,5.6 nM,200 nM,1300 nM,380 nM
O=C(N[C@H](Cc1ccc(Cl)cc1)C(=O)N1CCC(Cn2cncn2)(C2CCCCC2)CC1)[C@H]1Cc2ccccc2CN1,61%,32%,–,95%,–,–,–,–,–,–,–,–
O=C(N[C@H](Cc1ccc(Cl)cc1)C(=O)N1CCC(CN2CCCS2(=O)=O)(C2CCCCC2)CC1)[C@H]1Cc2ccccc2CN1,41%,19%,660 nM,41%,0.91 nM,540 nM,680 nM,67%,5.3 nM,170 nM,1300 nM,310 nM
CN1CCN(CC2(C3CCCCC3)CCN(C(=O)[C@@H](Cc3ccc(Cl)cc3)NC(=O)[C@H]3Cc4ccccc4CN3)CC2)C1=O,63%,24%,460 nM,43%,4.3 nM,1200 nM,950 nM,88%,16 nM,160 nM,1800 nM,660 nM
CC1(C)CCN(CC2(C3CCCCC3)CCN(C(=O)[C@@H](Cc3ccc(Cl)cc3)NC(=O)[C@H]3Cc4ccccc4CN3)CC2)S1(=O)=O,39%,18%,850 nM,27%,0.62 nM,450 nM,460 nM,74%,5.8 nM,190 nM,1200 nM,760 nM
O=C(N[C@H](Cc1ccc(Cl)cc1)C(=O)N1CCC(CN2C(=O)OCC23CC3)(C2CCCCC2)CC1)[C@H]1Cc2ccccc2CN1,36%,15%,620 nM,48%,4.6 nM,990 nM,2600 nM,68%,6.1 nM,170 nM,2400 nM,490 nM
O=C(N[C@H](Cc1ccc(Cl)cc1)C(=O)N1CCC(CN2C(=O)OCC23CCC3)(C2CCCCC2)CC1)[C@H]1Cc2ccccc2CN1,32%,6%,1200 nM,25%,7.9 nM,–,1700 nM,65%,15 nM,210 nM,2100 nM,400 nM
O=C(N[C@H](Cc1ccc(Cl)cc1)C(=O)N1CCC(CN2CCNC2=O)(C2CCCCC2)CC1)[C@H]1Cc2ccccc2CN1,48%,23%,480 nM,39%,4.8 nM,880 nM,980 nM,82%,16 nM,150 nM,1100 nM,520 nM

# Second part, the compound after the results:
%max [1],%max [2],EC50 [3],%max [4],IC50 [5],EC50 [6],EC50 [7],%max [8],EC50 [9],IC50 [10],IC50 [11],IC50 [12],Compound
51%,15%,400 nM,40%,1.3 nM,370 nM,1300 nM,68%,1.3 nM,110 nM,1700 nM,210 nM,C[C@@H]1COC(=O)N1CC1(C2CCCCC2)CCN(C(=O)[C@@H](Cc2ccc(Cl)cc2)NC(=O)[C@H]2Cc3ccccc3CN2)CC1
38%,6%,340 nM,35%,0.8 nM,–,550 nM,82%,2.4 nM,80 nM,1100 nM,230 nM,CC1(C)COC(=O)N1CC1(C2CCCCC2)CCN(C(=O)[C@@H](Cc2ccc(Cl)cc2)NC(=O)[C@H]2Cc3ccccc3CN2)CC1
53%,19%,400 nM,72%,4.5 nM,640 nM,2100 nM,90%,8.6 nM,220 nM,2400 nM,840 nM,C[C@H]1COC(=O)N1CC1(C2CCCCC2)CCN(C(=O)[C@@H](Cc2ccc(Cl)cc2)NC(=O)[C@H]2Cc3ccccc3CN2)CC1
48%,11%,280 nM,56%,4 nM,–,1300 nM,76%,5.8 nM,180 nM,2000 nM,460 nM,O=C(N[C@H](Cc1ccc(Cl)cc1)C(=O)N1CCC(CN2CCOC2=O)(C2CCCCC2)CC1)[C@H]1Cc2ccccc2CN1
